Assay results taken from ChEMBL document CHEMBL5291721, “A preclinical secondary pharmacology resource illuminates target-adverse drug reaction associations of marketed drugs” (Nat Commun, 2023).

Columns and labels:
Androgen receptor [1] = target: T1, Androgen receptor (Rattus norvegicus, UniProt P15207); assay type: functional
T1 sequence (P15207 whole entry): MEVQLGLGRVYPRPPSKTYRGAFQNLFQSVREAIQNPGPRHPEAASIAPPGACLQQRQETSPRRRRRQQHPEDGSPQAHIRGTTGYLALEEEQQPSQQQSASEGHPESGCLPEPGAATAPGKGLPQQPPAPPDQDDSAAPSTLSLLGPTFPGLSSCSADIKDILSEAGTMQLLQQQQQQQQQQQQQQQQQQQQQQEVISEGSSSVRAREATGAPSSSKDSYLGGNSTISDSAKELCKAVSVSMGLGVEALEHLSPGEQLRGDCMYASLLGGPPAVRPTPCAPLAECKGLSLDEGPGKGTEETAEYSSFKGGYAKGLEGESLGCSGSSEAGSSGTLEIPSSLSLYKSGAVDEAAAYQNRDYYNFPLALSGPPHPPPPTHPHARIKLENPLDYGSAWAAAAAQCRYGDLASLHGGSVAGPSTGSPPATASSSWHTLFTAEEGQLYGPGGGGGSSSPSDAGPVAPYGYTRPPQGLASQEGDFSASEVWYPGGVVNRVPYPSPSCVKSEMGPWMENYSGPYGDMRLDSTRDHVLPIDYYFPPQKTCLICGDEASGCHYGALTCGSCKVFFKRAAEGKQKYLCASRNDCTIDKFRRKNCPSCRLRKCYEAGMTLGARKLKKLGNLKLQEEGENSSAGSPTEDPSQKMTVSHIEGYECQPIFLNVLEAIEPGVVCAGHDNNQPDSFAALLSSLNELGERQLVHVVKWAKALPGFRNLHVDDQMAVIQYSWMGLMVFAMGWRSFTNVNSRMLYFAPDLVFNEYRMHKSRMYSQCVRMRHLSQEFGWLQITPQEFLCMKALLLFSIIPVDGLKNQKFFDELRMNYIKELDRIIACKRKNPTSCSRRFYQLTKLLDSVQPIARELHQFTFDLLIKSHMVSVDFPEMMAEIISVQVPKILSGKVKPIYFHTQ

[2] = target: Gamma-aminobutyric acid receptor subunit alpha-1/alpha-2/beta-2/gamma-2 (Homo sapiens, UniProt P14867+P18507+P47869+P47870); assay type: functional, cell-based
Gamma-aminobutyric acid receptor subunit alpha-1/alpha-2/beta-2/gamma-2, sequence (P14867 whole entry): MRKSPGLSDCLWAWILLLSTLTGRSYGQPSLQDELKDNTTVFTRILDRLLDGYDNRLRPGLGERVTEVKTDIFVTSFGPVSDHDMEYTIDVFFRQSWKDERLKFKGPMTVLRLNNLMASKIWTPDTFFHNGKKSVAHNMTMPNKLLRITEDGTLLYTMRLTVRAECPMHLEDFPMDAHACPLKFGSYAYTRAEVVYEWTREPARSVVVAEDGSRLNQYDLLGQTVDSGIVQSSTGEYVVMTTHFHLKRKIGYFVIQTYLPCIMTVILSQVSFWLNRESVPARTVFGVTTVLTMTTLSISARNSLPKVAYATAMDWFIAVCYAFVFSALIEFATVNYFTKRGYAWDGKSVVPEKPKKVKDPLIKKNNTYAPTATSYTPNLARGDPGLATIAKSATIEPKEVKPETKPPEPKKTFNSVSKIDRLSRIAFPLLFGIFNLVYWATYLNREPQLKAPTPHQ
Gamma-aminobutyric acid receptor subunit alpha-1/alpha-2/beta-2/gamma-2, sequence (P47870 whole entry): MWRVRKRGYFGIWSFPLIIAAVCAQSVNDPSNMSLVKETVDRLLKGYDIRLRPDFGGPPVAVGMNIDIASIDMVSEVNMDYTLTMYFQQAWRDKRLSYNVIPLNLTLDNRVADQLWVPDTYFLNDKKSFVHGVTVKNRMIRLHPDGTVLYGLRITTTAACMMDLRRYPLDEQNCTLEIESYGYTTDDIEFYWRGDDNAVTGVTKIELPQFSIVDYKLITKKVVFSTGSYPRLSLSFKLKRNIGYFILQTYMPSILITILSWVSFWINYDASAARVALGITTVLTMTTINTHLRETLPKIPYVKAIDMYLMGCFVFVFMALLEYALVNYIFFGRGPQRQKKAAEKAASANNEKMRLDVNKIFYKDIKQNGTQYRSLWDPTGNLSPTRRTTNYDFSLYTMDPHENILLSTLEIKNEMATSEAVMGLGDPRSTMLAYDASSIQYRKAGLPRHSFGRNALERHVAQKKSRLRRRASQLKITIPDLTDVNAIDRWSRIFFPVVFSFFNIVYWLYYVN
Gamma-aminobutyric acid receptor subunit alpha-1/alpha-2/beta-2/gamma-2, sequence (P18507 whole entry): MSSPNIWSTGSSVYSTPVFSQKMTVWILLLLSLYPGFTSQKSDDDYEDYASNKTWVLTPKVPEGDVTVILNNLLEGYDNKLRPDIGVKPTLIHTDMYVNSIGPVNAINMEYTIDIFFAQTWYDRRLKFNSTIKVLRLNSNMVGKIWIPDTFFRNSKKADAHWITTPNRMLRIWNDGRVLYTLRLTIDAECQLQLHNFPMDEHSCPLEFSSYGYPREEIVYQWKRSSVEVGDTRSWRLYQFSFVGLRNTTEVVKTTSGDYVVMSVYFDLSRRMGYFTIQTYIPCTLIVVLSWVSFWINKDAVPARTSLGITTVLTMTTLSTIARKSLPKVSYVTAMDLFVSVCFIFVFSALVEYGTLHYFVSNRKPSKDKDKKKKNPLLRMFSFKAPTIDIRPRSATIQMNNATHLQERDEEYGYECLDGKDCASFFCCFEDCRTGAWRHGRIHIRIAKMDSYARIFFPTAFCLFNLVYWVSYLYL
Gamma-aminobutyric acid receptor subunit alpha-1/alpha-2/beta-2/gamma-2, sequence (P47869 whole entry): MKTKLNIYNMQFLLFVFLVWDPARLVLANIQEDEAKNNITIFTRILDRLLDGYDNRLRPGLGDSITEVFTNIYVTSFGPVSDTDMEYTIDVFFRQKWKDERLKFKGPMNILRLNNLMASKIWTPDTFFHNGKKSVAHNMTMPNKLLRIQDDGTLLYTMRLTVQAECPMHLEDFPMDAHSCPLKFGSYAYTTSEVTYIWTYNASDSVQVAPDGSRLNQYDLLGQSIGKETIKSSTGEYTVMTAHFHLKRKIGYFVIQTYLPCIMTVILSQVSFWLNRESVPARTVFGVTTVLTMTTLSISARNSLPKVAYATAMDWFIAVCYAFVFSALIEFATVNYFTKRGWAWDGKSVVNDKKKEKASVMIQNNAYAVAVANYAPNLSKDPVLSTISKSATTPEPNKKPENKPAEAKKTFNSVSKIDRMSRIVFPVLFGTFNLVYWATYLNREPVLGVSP

Androgen receptor [3] = target: T1, Androgen receptor; assay type: functional; remark: listed apart in the source
[4] = target: Neurotensin receptor type 1 (Homo sapiens, UniProt P30989)
Neurotensin receptor type 1, sequence (P30989 whole entry): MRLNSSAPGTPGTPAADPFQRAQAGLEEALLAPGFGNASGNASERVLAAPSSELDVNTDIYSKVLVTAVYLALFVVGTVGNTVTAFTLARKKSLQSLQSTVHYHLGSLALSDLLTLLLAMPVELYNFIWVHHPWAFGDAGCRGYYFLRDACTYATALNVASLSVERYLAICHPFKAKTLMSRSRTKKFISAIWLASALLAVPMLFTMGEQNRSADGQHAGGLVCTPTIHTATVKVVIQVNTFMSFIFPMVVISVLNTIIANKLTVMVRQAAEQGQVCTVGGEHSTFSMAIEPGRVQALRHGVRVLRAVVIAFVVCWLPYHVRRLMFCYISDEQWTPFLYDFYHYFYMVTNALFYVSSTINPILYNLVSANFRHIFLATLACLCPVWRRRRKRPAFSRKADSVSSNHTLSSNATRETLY

D(4) dopamine receptor = target: T2, D(4) dopamine receptor (Homo sapiens, UniProt P21917)
T2 sequence (P21917 whole entry): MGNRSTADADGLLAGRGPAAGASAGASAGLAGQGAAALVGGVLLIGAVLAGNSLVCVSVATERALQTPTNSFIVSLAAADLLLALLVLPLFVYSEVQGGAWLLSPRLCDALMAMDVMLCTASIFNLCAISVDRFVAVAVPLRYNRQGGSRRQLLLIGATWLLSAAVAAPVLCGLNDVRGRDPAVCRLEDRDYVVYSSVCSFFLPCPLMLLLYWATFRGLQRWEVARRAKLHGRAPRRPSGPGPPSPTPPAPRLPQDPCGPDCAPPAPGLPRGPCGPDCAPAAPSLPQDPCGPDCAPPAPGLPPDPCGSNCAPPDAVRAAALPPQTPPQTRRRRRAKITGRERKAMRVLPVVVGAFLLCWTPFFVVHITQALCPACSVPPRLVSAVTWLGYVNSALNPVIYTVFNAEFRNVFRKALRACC

Glucagon receptor = Glucagon receptor (Homo sapiens, UniProt P47871)
Glucagon receptor, sequence (P47871 whole entry): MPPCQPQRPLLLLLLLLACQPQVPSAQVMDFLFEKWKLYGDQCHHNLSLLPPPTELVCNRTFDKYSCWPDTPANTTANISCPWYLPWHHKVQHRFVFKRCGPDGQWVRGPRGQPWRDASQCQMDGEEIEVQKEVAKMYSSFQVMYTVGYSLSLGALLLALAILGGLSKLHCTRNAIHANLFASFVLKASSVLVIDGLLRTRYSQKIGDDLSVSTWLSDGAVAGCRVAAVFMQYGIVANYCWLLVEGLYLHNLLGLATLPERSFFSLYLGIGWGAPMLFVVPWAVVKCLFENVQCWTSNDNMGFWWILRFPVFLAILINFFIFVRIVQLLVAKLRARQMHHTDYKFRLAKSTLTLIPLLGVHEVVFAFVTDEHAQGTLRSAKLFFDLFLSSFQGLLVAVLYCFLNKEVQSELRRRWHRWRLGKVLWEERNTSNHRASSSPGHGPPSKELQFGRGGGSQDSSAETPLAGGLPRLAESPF

[5] = target: T3, 5-hydroxytryptamine receptor 1A (Homo sapiens, UniProt P08908)
T3 sequence (P08908 whole entry): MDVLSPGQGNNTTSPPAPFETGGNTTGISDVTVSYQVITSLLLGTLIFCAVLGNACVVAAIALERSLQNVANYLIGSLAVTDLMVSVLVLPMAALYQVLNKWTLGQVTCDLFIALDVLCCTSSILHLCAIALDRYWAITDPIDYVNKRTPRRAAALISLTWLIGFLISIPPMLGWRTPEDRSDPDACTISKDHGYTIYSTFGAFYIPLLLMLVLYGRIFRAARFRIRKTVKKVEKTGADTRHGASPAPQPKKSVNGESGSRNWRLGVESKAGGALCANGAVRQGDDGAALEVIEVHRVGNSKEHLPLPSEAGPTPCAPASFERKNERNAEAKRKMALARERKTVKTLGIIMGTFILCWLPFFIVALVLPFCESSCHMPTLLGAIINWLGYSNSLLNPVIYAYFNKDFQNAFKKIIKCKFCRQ

[6] = target: T4, Endothelin receptor type B (Homo sapiens, UniProt P24530)
T4 sequence (P24530 whole entry): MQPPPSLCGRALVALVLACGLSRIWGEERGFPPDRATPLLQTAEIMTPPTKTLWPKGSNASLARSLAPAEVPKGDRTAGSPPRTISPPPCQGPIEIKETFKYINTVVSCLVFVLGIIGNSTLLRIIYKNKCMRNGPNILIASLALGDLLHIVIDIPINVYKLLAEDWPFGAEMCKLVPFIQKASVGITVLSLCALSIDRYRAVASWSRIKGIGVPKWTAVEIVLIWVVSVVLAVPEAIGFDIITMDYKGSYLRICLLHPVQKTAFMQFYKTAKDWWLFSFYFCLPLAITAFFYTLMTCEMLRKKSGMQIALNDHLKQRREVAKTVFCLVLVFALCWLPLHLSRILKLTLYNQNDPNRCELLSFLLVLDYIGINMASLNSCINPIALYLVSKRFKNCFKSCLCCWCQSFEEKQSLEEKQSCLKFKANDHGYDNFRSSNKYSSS

[7] = target: 5-hydroxytryptamine receptor 2B (Homo sapiens, UniProt P41595)
5-hydroxytryptamine receptor 2B, sequence (P41595 whole entry): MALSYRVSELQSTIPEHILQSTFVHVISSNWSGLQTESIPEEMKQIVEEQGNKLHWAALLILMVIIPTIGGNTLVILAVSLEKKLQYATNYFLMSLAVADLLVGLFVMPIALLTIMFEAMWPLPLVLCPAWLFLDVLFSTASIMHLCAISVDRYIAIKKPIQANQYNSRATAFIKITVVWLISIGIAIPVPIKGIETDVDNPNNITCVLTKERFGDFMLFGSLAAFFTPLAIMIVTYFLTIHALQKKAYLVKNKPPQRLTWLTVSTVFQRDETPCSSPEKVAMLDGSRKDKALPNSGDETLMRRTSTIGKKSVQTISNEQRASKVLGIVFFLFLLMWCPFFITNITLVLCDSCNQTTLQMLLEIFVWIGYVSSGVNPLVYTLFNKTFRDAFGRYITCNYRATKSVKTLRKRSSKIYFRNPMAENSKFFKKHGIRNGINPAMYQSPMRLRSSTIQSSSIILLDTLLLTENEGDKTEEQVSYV

D(1A) dopamine receptor = D(1A) dopamine receptor (Homo sapiens, UniProt P21728)
D(1A) dopamine receptor, sequence (P21728 whole entry): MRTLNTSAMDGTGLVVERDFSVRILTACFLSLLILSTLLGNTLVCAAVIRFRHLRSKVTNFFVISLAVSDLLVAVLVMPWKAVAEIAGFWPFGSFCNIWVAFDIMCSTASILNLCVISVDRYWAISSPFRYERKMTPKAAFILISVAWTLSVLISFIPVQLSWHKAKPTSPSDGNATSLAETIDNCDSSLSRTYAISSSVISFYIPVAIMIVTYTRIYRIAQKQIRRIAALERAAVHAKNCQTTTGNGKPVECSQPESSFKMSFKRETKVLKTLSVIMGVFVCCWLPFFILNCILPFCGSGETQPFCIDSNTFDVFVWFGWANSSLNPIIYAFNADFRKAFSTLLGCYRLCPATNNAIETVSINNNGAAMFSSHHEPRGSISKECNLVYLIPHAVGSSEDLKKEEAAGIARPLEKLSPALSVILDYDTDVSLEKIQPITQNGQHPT

Androgen receptor [8] = target: T1, Androgen receptor
Also: assay procedure not described here.

SMILES: CNCCc1ccc(OC(=O)C(C)C)c(OC(=O)C(C)C)c1 [IBOPAMINE]
- AC50 (Androgen receptor [1]): > 30 µM
- AC50 [2]: > 30 µM
- AC50 (Androgen receptor [3]): > 30 µM

SMILES: CN(C)CCCN1c2ccccc2CCc2ccccc21 [IMIPRAMINE]
- AC50 [4]: > 30 µM
- AC50 (D(4) dopamine receptor): 5.56 µM
- AC50 (Glucagon receptor): > 30 µM
- AC50 [5]: > 10 µM
- AC50 [6]: > 30 µM
- AC50 [7]: 0.319 µM
- AC50 (D(1A) dopamine receptor): 3.2 µM

SMILES: CCOC(=O)C1=C(C)NC(C)=C(C(=O)OCC)C1c1ccccc1/C=C/C(=O)OC(C)(C)C [LACIDIPINE]
- AC50 (Androgen receptor [1]): > 30 µM
- AC50 (Androgen receptor [3]): > 30 µM

SMILES: C=C1c2cccc(O)c2C(=O)C2=C(O)[C@]3(O)C(=O)C(C(N)=O)=C(O)[C@@H](N(C)C)[C@@H]3[C@@H](O)[C@H]12 [METHACYCLINE]
- AC50 (Androgen receptor [8]): > 30 µM

SMILES: CN(Cc1cnc2nc(N)nc(N)c2n1)c1ccc(C(=O)N[C@@H](CCC(=O)O)C(=O)O)cc1 [METHOTREXATE]
- AC50 [4]: > 30 µM
- AC50 (Glucagon receptor): > 30 µM
- AC50 [5]: > 10 µM
- AC50 [6]: > 30 µM
- AC50 (Androgen receptor [8]): > 30 µM
- AC50 [7]: > 10 µM
- AC50 (D(1A) dopamine receptor): > 10 µM

SMILES: OC[C@H]1O[C@@H](n2cnc3c2NC=NC[C@H]3O)C[C@@H]1O [PENTOSTATIN]
- AC50 [2]: > 30 µM

SMILES: CC(C)c1cccc(C(C)C)c1O [PROPOFOL]
- AC50 [2]: 2 µM
- AC50 (Androgen receptor [3]): > 30 µM

SMILES: CN[C@@H](C)[C@@H](O)c1ccccc1 [PSEUDOEPHEDRINE]
- AC50 [4]: > 30 µM
- AC50 (D(4) dopamine receptor): > 10 µM
- AC50 (Glucagon receptor): > 30 µM
- AC50 [5]: > 10 µM
- AC50 [6]: > 30 µM
- AC50 (D(1A) dopamine receptor): > 10 µM

SMILES: CCCN1CC(NS(=O)(=O)N(CC)CC)CC2Cc3c(O)cccc3CC21 (stereo not given) [QUINAGOLIDE]
- AC50 (Androgen receptor [1]): > 30 µM
- AC50 (Androgen receptor [3]): > 30 µM
- AC50 [7]: 0.324 µM

SMILES: O=C1OC(OC(=O)c2cccnc2Nc2cccc(C(F)(F)F)c2)c2ccccc21 (stereo not given) [TALNIFLUMATE]
- AC50 (Androgen receptor [1]): > 30 µM
- AC50 [2]: > 30 µM
- AC50 (Androgen receptor [3]): > 30 µM

SMILES: O=S1(=O)CCN(CN2CCS(=O)(=O)NC2)CN1 [TAUROLIDINE]
- AC50 (Androgen receptor [1]): > 30 µM
- AC50 [2]: > 30 µM
- AC50 (Androgen receptor [3]): > 30 µM

SMILES: CCOC(=O)c1c(CSc2ccccc2)n(C)c2cc(Br)c(O)c(CN(C)C)c12 [UMIFENOVIR]
- AC50 (Androgen receptor [1]): > 30 µM
- AC50 (Androgen receptor [3]): > 30 µM
